Reference: the supplement of paper PMC10627819

Assays:
S. pneumoniae D39V [1] = experiment: fitness (endpoint OD595 vs no drug) (fraction); higher = more growth
Method in brief: (§1)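 Bacterial fitness was scored as optical density at the stationary-phase transition relative to the robust mean of no-drug control wells. Scores are capped at 1. The growth data were OD595 readings every 30 min for 14 h at 37 °C, background-subtracted against the first reading, from 384-well plates inoculated at OD595 0.01 in TSB, LB Lennox or CY.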

S. aureus Newman [2] = experiment: as above
Method in brief: as §1

S. aureus DSM 20231 = experiment: Bliss interaction score (quartile over a dose matrix) (fitness difference); higher = more antagonism (negative = synergy)
Method in brief: (§2)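 Each OD595 reading at entry into stationary phase was scaled to the robust mean of the untreated wells on its plate, with a ceiling of 1. These ratios define fitness, and single-drug fitness was inferred from combinations. The Bliss score compares observed fitness with the product-based expectation and is reported as quartiles across all replicate types, technical, biological and donor/recipient.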

B. subtilis 168 = experiment: as above
Method in brief: as §2

S. pneumoniae D39V [3] = experiment: as above
Method in brief: as §2

S. aureus Newman [4] = experiment: as above
Method in brief: as §2
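Wherever Bliss interaction score (quartile over a dose matrix) is given: first quartile when negative (synergy) and third quartile when positive (antagonism).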
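Wherever fitness (endpoint OD595 vs no drug) is given: OD595 on entry to stationary phase over no-drug wells; at most 1.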

CC1(C)S[C@@H]2[C@H](NC(=O)[C@H](N)c3ccc(O)cc3)C(=O)N2[C@H]1C(=O)O [Amoxicillin] + CC(C1CCC(C(O1)OC2C(CC(C(C2O)OC3C(C(C(CO3)(C)O)NC)O)N)N)N)NC [Gentamicin]
fitness, main component drawn
Settings | partner 0.375 µg/mL | partner 0.5 µg/mL | partner 0.75 µg/mL | partner 1 µg/mL | partner 1.5 µg/mL | partner 2 µg/mL | partner 4 µg/mL | partner 8 µg/mL
S. aureus Newman [2], first compound 0.0625 µg/mL | 0.91 | 0.878 | 0.896 | 0.911 | 0.892 | 0.972 | – | –
S. aureus Newman [2], first compound 0.125 µg/mL | 0.984 | 0.851 | ≥ 1 | 0.899 | 0.974 | 0.968 | – | –
S. aureus Newman [2], first compound 0.25 µg/mL | 0.983 | 0.858 | 0.944 | 0.847 | 0.961 | – | – | –
S. pneumoniae D39V [1], first compound 0.0008 µg/mL | – | – | – | – | – | 0.977 | 0.935 | 0.942
S. pneumoniae D39V [1], first compound 0.0015 µg/mL | – | – | – | – | – | 0.988 | 0.94 | 0.946
S. pneumoniae D39V [1], first compound 0.003 µg/mL | – | – | – | – | – | 0.926 | 0.9 | 0.851

fitness, one replicate, main component drawn
Settings | partner 2 µg/mL | partner 4 µg/mL | partner 8 µg/mL
S. aureus Newman [2], first compound 0.0625 µg/mL | – | 0.0669 | –
S. aureus Newman [2], first compound 0.125 µg/mL | – | 0.0478 | –
S. aureus Newman [2], first compound 0.25 µg/mL | – | 0.0624 | –
S. pneumoniae D39V [1], first compound 0.006 µg/mL | 0.587 | 0.634 | 0.508

main component drawn
Settings | Bliss interaction score
B. subtilis 168 | -0.0767
S. aureus DSM 20231 | 0.0684
S. aureus Newman [4] | 0.0602
S. pneumoniae D39V [3] | 0.055

CC1(C)S[C@@H]2[C@H](NC(=O)[C@H](N)c3ccc(O)cc3)C(=O)N2[C@H]1C(=O)O [Amoxicillin] + CC[C@H](C)[C@H](N)C1=N[C@H](C(=O)N[C@@H](CC(C)C)C(=O)N[C@H](CCC(=O)O)C(=O)N[C@H](C(=O)N[C@H]2CCCCNC(=O)[C@H](CC(N)=O)NC(=O)[C@@H](CC(=O)O)NC(=O)[C@H](Cc3cnc[nH]3)NC(=O)[C@@H](Cc3ccccc3)NC(=O)[C@H]([C@@H](C)CC)NC(=O)[C@@H](CCCN)NC2=O)[C@@H](C)CC)CS1 [Bacitracin]
S. aureus Newman [2], partner 75 µg/mL, main component drawn
Settings | fitness
first compound 0.0625 µg/mL | 0.0143
first compound 0.125 µg/mL | 0.0081
first compound 0.25 µg/mL | 0.0047

main component drawn
Settings | Bliss interaction score
B. subtilis 168 | -0.101
S. aureus DSM 20231 | -0.0167
S. aureus Newman [4] | 0.0659
S. pneumoniae D39V [3] | 0.104

CC1(C)S[C@@H]2[C@H](NC(=O)[C@H](N)c3ccc(O)cc3)C(=O)N2[C@H]1C(=O)O [Amoxicillin] + CN(C)c1cc(NC(=O)CNC(C)(C)C)c(O)c2c1C[C@H]1C[C@H]3[C@H](N(C)C)C(O)=C(C(N)=O)C(=O)[C@@]3(O)C(O)=C1C2=O [Tigecycline]
fitness, S. pneumoniae D39V [1], one replicate
Settings | partner 0.325 µg/mL | partner 0.65 µg/mL | partner 1.3 µg/mL
first compound 0.0008 µg/mL | 0.969 | – | –
first compound 0.006 µg/mL | 0.386 | 0.449 | 0.458

Settings | fitness
S. aureus Newman [2], first compound 0.0625 µg/mL, partner 0.039 µg/mL | 0.892
S. aureus Newman [2], first compound 0.0625 µg/mL, partner 0.078 µg/mL | 0.903
S. aureus Newman [2], first compound 0.0625 µg/mL, partner 0.156 µg/mL | 0.884
S. aureus Newman [2], first compound 0.125 µg/mL, partner 0.039 µg/mL | 0.875
S. aureus Newman [2], first compound 0.125 µg/mL, partner 0.078 µg/mL | 0.922
S. aureus Newman [2], first compound 0.125 µg/mL, partner 0.156 µg/mL | 0.862
S. aureus Newman [2], first compound 0.25 µg/mL, partner 0.039 µg/mL | 0.799
S. aureus Newman [2], first compound 0.25 µg/mL, partner 0.078 µg/mL | 0.867
S. aureus Newman [2], first compound 0.25 µg/mL, partner 0.156 µg/mL | 0.817
S. pneumoniae D39V [1], first compound 0.0008 µg/mL, partner 0.65 µg/mL | 0.928
S. pneumoniae D39V [1], first compound 0.0008 µg/mL, partner 1.3 µg/mL | ≥ 1
S. pneumoniae D39V [1], first compound 0.0008 µg/mL, partner 2.6 µg/mL | 0.968
S. pneumoniae D39V [1], first compound 0.0015 µg/mL, partner 0.325 µg/mL | 0.941
S. pneumoniae D39V [1], first compound 0.0015 µg/mL, partner 0.65 µg/mL | 0.942
S. pneumoniae D39V [1], first compound 0.0015 µg/mL, partner 1.3 µg/mL | 0.994
S. pneumoniae D39V [1], first compound 0.0015 µg/mL, partner 2.6 µg/mL | 0.956
S. pneumoniae D39V [1], first compound 0.003 µg/mL, partner 0.325 µg/mL | 0.904
S. pneumoniae D39V [1], first compound 0.003 µg/mL, partner 0.65 µg/mL | 0.921
S. pneumoniae D39V [1], first compound 0.003 µg/mL, partner 1.3 µg/mL | 0.944
S. pneumoniae D39V [1], first compound 0.003 µg/mL, partner 2.6 µg/mL | 0.877

Settings | Bliss interaction score
B. subtilis 168 | -0.0604
S. aureus DSM 20231 | -0.0322
S. aureus Newman [4] | 0.0642
S. pneumoniae D39V [3] | 0.0424
